Source: patent US11524938B2, “Aromatic sulfonamide derivatives” (Bayer Pharma Aktiengesellschaft, priority 2016, dated 2022)
Where “and” joins values, the source holds several entries; their conditions need not be identical. Equal values may be shown once.

Molecular target: T1, human P2X4 (Homo sapiens, UniProt Q99571)
T1 sequence (Q99571 1-388): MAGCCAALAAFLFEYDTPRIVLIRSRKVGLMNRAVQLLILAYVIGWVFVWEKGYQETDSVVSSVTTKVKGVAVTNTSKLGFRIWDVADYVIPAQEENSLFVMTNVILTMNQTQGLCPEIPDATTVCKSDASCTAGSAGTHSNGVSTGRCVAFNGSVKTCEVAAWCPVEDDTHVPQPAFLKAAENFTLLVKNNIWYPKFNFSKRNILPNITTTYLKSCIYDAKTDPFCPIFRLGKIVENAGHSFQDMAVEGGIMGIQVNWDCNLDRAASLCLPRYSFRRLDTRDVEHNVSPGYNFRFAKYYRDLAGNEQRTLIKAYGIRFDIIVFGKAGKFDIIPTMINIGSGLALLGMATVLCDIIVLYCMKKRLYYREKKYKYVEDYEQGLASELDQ
Experiment: Human P2X4 HEK Cell FLIPR Assay
Format: cell-based
Conditions: agonist Bz-ATP at EC80; for Emax: HEK293, HEK293 cells, percentage of maximal inhibition, read-out: Human P2X4 HEK Cells (FLIPR Assay) avg Efficacy [%]; for IC50: HEK293 cells, individual values listed where some fall outside detection range
Summary of the method: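 Calcium flux read by FLIPR for 120 sec after Bz-ATP challenge at EC80 (established each assay day), following 30 min room-temperature compound preincubation in dye-loaded stable human P2X4 HEK293 cells. Peak RFU over basal normalized to agonist control; IC50, maximal inhibition and Hill coefficient from triplicate means.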

| SMILES | Emax [%] | IC50 |
| --- | --- | --- |
| NS(=O)(=O)c1c(-c2cnn(C(F)F)c2)ccc(NC(=O)Cc2ccccc2Cl)c1C(F)(F)F [Example 489, 2-(2-Chlorophenyl)-N-{4-[1-(difluoromethyl)-1H-pyrazol-4-yl]-3-sulfamoyl-2-(trifluoromethyl)phenyl}acetamide] | 83 | 2060 nM |
| NS(=O)(=O)c1cc(NC(=O)Cc2cccc(C(F)(F)F)c2Cl)ccc1-c1cnn(C(F)F)c1 [Example 490, 2-[2-Chloro-3-(trifluoromethyl)phenyl]-N-{4-[1-(difluoromethyl)-1H-pyrazol-4-yl]-3-sulfamoylphenyl}acetamide] | 95 | 91 nM |
| NS(=O)(=O)c1cc(NC(=O)Cc2ccccc2Cl)c(C(F)(F)F)cc1-c1cnn(C(F)F)c1 [Example 491, 2-(2-Chlorophenyl)-N-{4-[1-(difluoromethyl)-1H-pyrazol-4-yl]-5-sulfamoyl-2-(trifluoromethyl)phenyl}acetamide] | 67 | 9090 nM |
| NS(=O)(=O)c1cc(NC(=O)Cc2ccccc2Cl)ccc1-c1cnn(C(F)F)c1C(F)(F)F [Example 492, 2-(2-Chlorophenyl)-N-{4-[1-(difluoromethyl)-5-(trifluoromethyl)-1H-pyrazol-4-yl]-3-sulfamoylphenyl}acetamide] | 92 | 531 nM |
| NS(=O)(=O)c1c(-c2cnn(C(F)F)c2)ccc(NC(=O)Cc2ccccc2Cl)c1F [Example 493, 2-(2-Chlorophenyl)-N-{4-[1-(difluoromethyl)-1H-pyrazol-4-yl]-2-fluoro-3-sulfamoylphenyl}acetamide] | 90 | 228 nM |
| NS(=O)(=O)c1cc(NC(=O)Cc2ccccc2Cl)c(F)cc1-c1cnn(C(F)F)c1 [Example 494, 2-(2-Chlorophenyl)-N-{4-[1-(difluoromethyl)-1H-pyrazol-4-yl]-2-fluoro-5-sulfamoylphenyl}acetamide] | 94 | 205 nM |
| CN(C)c1nc(-c2ccc(NC(=O)Cc3ccccc3Cl)cc2S(N)(=O)=O)cs1 [Example 495, 2-(2-Chlorophenyl)-N-{4-[2-(dimethylamino)-1,3-thiazol-4-yl]-3-sulfamoylphenyl}acetamide] | 75 | 128 nM |
| NS(=O)(=O)c1cc(NC(=O)Cc2ccccc2Cl)ccc1-c1ccns1 [Example 496, 2-(2-Chlorophenyl)-N-[3-sulfamoyl-4-(1,2-thiazol-5-yl)phenyl]acetamide] | 87 | 22 nM |
| CN(C(=O)c1cnn(-c2ccc(NC(=O)Cc3ccccc3Cl)cc2S(N)(=O)=O)c1)C1CC1 [Example 497, 1-(4-{[(2-Chlorophenyl)acetyl]amino}-2-sulfamoylphenyl)-N-cyclopropyl-N-methyl-1H-pyrazole-4-carboxamide] | 97 | 54 nM |
| NS(=O)(=O)c1cc(NC(=O)C(O)c2ccccc2Cl)ccc1-n1cc(C(F)(F)F)cn1 (centres unmarked) [Example 498, 2-(2-Chlorophenyl)-2-hydroxy-N-{3-sulfamoyl-4-[4-(trifluoromethyl)-1H-pyrazol-1-yl]phenyl}ethanamide] | 50 | 18200 nM and > 25000 nM |
| NS(=O)(=O)c1cc(NC(=O)Cc2ccccc2Cl)cc(Cl)c1-n1cc(C(F)(F)F)cn1 [Example 499, 2-(2-Chlorophenyl)-N-{3-chloro-5-sulfamoyl-4-[4-(trifluoromethyl)-1H-pyrazol-1-yl]phenyl}acetamide] | 69 | 347 nM |
| N#Cc1cn(-c2ccc(NC(=O)Cc3ccccc3Cl)cc2S(N)(=O)=O)nc1O [Example 500, 2-(2-Chlorophenyl)-N-[4-(4-cyano-3-hydroxy-1H-pyrazol-1-yl)-3-sulfamoylphenyl]acetamide] | 40 | > 25000 nM |
| NS(=O)(=O)c1cc(NC(=O)Cc2ccccc2Cl)ccc1-n1ncc2cnccc21 [Example 501, 2-(2-Chlorophenyl)-N-[4-(1H-pyrazolo[4,3-c]pyridin-1-yl)-3-sulfamoylphenyl]acetamide] | 92 | 3 nM |
| Cc1nc(-c2ccc(NC(=O)Cc3ccccc3Cl)cc2S(N)(=O)=O)sc1C [Example 502, 2-(2-Chlorophenyl)-N-[4-(4,5-dimethyl-1,3-thiazol-2-yl)-3-sulfamoylphenyl]acetamide] | 49 | 13800 nM |
| Cc1nc(C)c(-c2ccc(NC(=O)Cc3ccccc3Cl)cc2S(N)(=O)=O)s1 [Example 503, 2-(2-Chlorophenyl)-N-[4-(2,4-dimethyl-1,3-thiazol-5-yl)-3-sulfamoylphenyl]acetamide] | 102 | 47 nM |
| Cc1ncsc1-c1ccc(NC(=O)Cc2ccccc2Cl)cc1S(N)(=O)=O [Example 504, 2-(2-Chlorophenyl)-N-[4-(4-methyl-1,3-thiazol-5-yl)-3-sulfamoylphenyl]acetamide] | 98 | 33 nM |

| SMILES | Emax [%] | IC50 |
| --- | --- | --- |
| Nc1cnn(-c2ccc(NC(=O)Cc3ccccc3Cl)cc2S(N)(=O)=O)c1 [Example 505] | 93 | 131 nM |
| NS(=O)(=O)c1cc(NC(=O)Cc2ccccc2Cl)ccc1-n1cc(NC(=O)C(F)F)cn1 [Example 506, N-[1-(4-{[(2-Chlorophenyl)acetyl]amino}-2-sulfamoylphenyl)-1H-pyrazol-4-yl]-2,2-difluoroacetamide] | 91 | 391 nM |
| NS(=O)(=O)c1cc(NC(=O)Cc2ccccc2Cl)ccc1-n1cc(NC(=O)CC(F)(F)F)cn1 [Example 507, N-[1-(4-{[(2-Chlorophenyl)acetyl]amino}-2-sulfamoylphenyl)-1H-pyrazol-4-yl]-3,3,3-trifluoropropanamide] | 86 | 180 nM |
| C[C@@H]1CC[C@H](C)N1c1cnn(-c2ccc(NC(=O)Cc3ccccc3Cl)cc2S(N)(=O)=O)c1 [Example 511, 2-(2-Chlorophenyl)-N-(4-{4-[(cis)-2,5-dimethylpyrrolidin-1-yl]-1H-pyrazol-1-yl}-3-sulfamoylphenyl)acetamide] | 60 | 343 nM |
| NS(=O)(=O)c1cc(NC(=O)Cc2ccccc2F)ccc1-n1cc(NCC(F)F)cn1 [Example 514, N-(4-{4-[(2,2-Difluoroethyl)amino]-1H-pyrazol-1-yl}-3-sulfamoylphenyl)-2-(2-fluorophenyl)acetamide] | 102 | 106 nM |
| NS(=O)(=O)c1cc(NC(=O)Cc2ccccc2Cl)ccc1-n1cc(NCC(F)(F)F)cn1 [Example 515, 2-(2-Chlorophenyl)-N-(3-sulfamoyl-4-{4-[(2,2,2-trifluoroethyl)amino]-1H-pyrazol-1-yl}phenyl)acetamide] | 101 | 45 nM |
| CC(C)c1cnn(-c2ccc(NC(=O)Cc3ccccc3Cl)cc2S(N)(=O)=O)c1 [Example 516, 2-(2-Chlorophenyl)-N-[4-(4-isopropyl-1H-pyrazol-1-yl)-3-sulfamoylphenyl]acetamide] | 68 | 96 nM |
| CC(C)c1cnn(-c2ccc(NC(=O)Cc3ccccc3F)cc2S(N)(=O)=O)c1 [Example 517, 2-(2-Fluorophenyl)-N-[4-(4-isopropyl-1H-pyrazol-1-yl)-3-sulfamoylphenyl]acetamide] | 74 | 187 nM |
| NS(=O)(=O)c1cc(NC(=O)Cc2ccccc2Cl)ccc1-n1cc(CC(F)(F)F)cn1 [Example 518, 2-(2-Chlorophenyl)-N-{3-sulfamoyl-4-[4-(2,2,2-trifluoroethyl)-1H-pyrazol-1-yl]phenyl}acetamide] | 80 | 36 nM |
| NS(=O)(=O)c1cc(NC(=O)Cc2ccccc2F)ccc1-n1cc(CC(F)(F)F)cn1 [Example 519, 2-(2-Fluorophenyl)-N-{3-sulfamoyl-4-[4-(2,2,2-trifluoroethyl)-1H-pyrazol-1-yl]phenyl}acetamide] | 82 | 105 nM |
| NS(=O)(=O)c1cc(NC(=O)Cc2ccccc2Cl)ccc1-c1noc(C2CC2)n1 [Example 520, 2-(2-Chlorophenyl)-N-[4-(5-cyclopropyl-1,2,4-oxadiazol-3-yl)-3-sulfamoylphenyl]acetamide] | 76 | 43 nM |
| NS(=O)(=O)c1cc(NC(=O)Cc2ccccc2Cl)ccc1-c1nc(C(F)(F)F)no1 [Example 521, 2-(2-Chlorophenyl)-N-{3-sulfamoyl-4-[3-(trifluoromethyl)-1,2,4-oxadiazol-5-yl]phenyl}acetamide] | 52 | 6.9 µM and 17.2 µM and > 25 µM (4×) |
| NS(=O)(=O)c1cc(NC(=O)Cc2ccccc2Cl)ccc1-c1nnc(C(F)F)o1 [Example 522, 2-(2-Chlorophenyl)-N-{4-[5-(difluoromethyl)-1,3,4-oxadiazol-2-yl]-3-sulfamoylphenyl}acetamide] | 87 | 71 nM |
| NS(=O)(=O)c1cc(NC(=O)Cc2ccccc2F)ccc1-c1nnc(C(F)F)o1 [Example 523, N-{4-[5-(Difluoromethyl)-1,3,4-oxadiazol-2-yl]-3-sulfamoylphenyl}-2-(2-fluorophenyl)acetamide] | 89 | 149 nM |
| Cc1nnc(-c2ccc(NC(=O)Cc3ccccc3Cl)cc2S(N)(=O)=O)o1 [Example 524, 2-(2-Chlorophenyl)-N-[4-(5-methyl-1,3,4-oxadiazol-2-yl)-3-sulfamoylphenyl]acetamide] | 87 | 322 nM |
